# Measured values as given in US10865191B2, “Heterocyclic compounds useful as modulators of TNF alpha” (BRISTOL-MYERS SQUIBB COMPANY, priority 2015, dated 2020).
# Where a name gives a salt, the structure may show the parent alone. Read-outs that look alike come from different tables or passages of the source.
# Target: TNFα (Homo sapiens, UniProt P01375)
# Assay: TNF induced HEK-Blue assay (NF-kB-driven secreted alkaline phosphatase reporter)
# Format: cell-based
# Conditions: TNFα 0.5 ng/mL, HEK-Blue-CD40L cells, 18 h
# Procedure, shortened: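 HEK-Blue-CD40L cells (NF-kB-driven SEAP reporter), 20,000/well, added after 30 min pre-incubation of compound (0.004–25 μM final) with TNFα 0.5 ng/mL final at 37 °C; 18 h incubation. SEAP read with QUANTI-Blue at 620 nm; IC50 from 4-parameter logistic fit, normalized to unstimulated and stimulated DMSO controls.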
# [1] = read-out: TNF induced HEK-Blue assay IC50 value
# Chain of TNFα (P01375 77-233 limits assumed): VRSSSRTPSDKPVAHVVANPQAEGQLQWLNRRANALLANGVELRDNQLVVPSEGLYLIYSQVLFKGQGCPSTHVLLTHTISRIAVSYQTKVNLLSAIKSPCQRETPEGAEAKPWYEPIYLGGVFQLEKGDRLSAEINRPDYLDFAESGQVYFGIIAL
SMILES,IC50 [1] [µM],IC50 (TNF induced HEK-Blue assay IC50 value) [µM]
"CC(Nc1c(Cl)cnc2ccc(-c3cnc(C(C)(C)O)nc3)cc12)c1ccncc1F (racemic) [Example 162, 2-(5-(3-chloro-4-((1-(3-fluoropyridin-4-yl)ethyl)amino)quinolin-6-yl)pyrimidin-2-yl)propan-2-ol]",< 1,
"CCC(Nc1c(Cl)cnc2ccc(-c3cnc(C(C)(C)O)nc3)cc12)c1nc(C(N)=O)ccc1F (centres unmarked) [Example 129, 6-(1-((3-chloro-6-(2-(2-hydroxypropan-2-yl)pyrimidin-5-yl)quinolin-4-yl)amino)propyl)-5-fluoropicolinamide]",< 1,
"O=C(O)CN1CCN(c2ccc(-c3ccc4ncc(Cl)c(N[C@@H](c5ccccc5F)C(F)F)c4c3)cc2)CC1 [Example 16, (S)-2-(4-(4-(3-chloro-4-((2,2-difluoro-1-(2-fluorophenyl)ethyl)amino)quinolin-6-yl)phenyl)piperazin-1-yl)acetic acid]",< 1,
"CC(Nc1c(Cl)cnc2ccc(-c3cnc(C(C)(C)O)nc3)cc12)c1nc(C(N)=O)ccc1F (racemic) [Example 28, 6-(1-((3-chloro-6-(2-(2-hydroxypropan-2-yl)pyrimidin-5-yl)quinolin-4-yl)amino)ethyl)-5-fluoropicolinamide]",< 1,
"CC(Nc1c(Cl)cnc2ccc(-c3cnc(C(C)(C)O)nc3)cc12)c1ncccc1F (racemic) [Example 171, 2-(5-(3-chloro-4-((1-(3-fluoropyridin-2-yl)ethyl)amino)quinolin-6-yl)pyrimidin-2-yl)propan-2-ol]",< 1,
"CC(Nc1c(Cl)cnc2ccc(-c3cnc(C(C)(C)O)nc3)c(F)c12)c1ccccc1F (racemic) [Example 253, 2-(5-(3-chloro-5-fluoro-4-((1-(2-fluorophenyl)ethyl)amino)quinolin-6-yl)pyrimidin-2-yl)propan-2-ol]",< 1,
"CC(Nc1c(Cl)cnc2ccc(-c3cnc(C(C)(C)O)nc3)cc12)[C@H]1CCCN(C(=O)OC(C)(C)C)C1 (mixture of isomers) [Example 60, (S)-tert-butyl 3-(1-((3-chloro-6-(2-(2-hydroxypropan-2-yl)pyrimidin-5-yl)quinolin-4-yl)amino)ethyl)piperidine-1-carboxylate]",1 to 10,
"Cc1nc2ccc(-c3ccc(C(C)(C)O)cc3)cc2c(NC(C)c2cccs2)c1Cl (centres unmarked) [Example 502, 2-(4-(3-chloro-2-methyl-4-((1-(thiophen-2-yl)ethyl)amino)quinolin-6-yl)phenyl)propan-2-ol]",1 to 10,
"CC(Nc1c(Cl)cnc2ccc(-c3cnc(C(C)(C)O)nc3)cc12)[C@@H]1CCCN(C(=O)OC(C)(C)C)C1 (mixture of isomers) [Example 61, tert-butyl (R)-3-((R)-1-((3-chloro-6-(2-(2-hydroxypropan-2-yl)pyrimidin-5-yl)quinolin-4-yl)amino)ethyl)piperidine-1-carboxylate]",1 to 10,
"C[C@@H](Nc1c(Cl)cnc2ccc(-c3cnc(C4(O)CCCC4)nc3)cc12)c1ccccc1F [Example 120, (R)-1-(5-(3-chloro-4-((1-(2-fluorophenyl)ethyl)amino)quinolin-6-yl)pyrimidin-2-yl)cyclopentan-1-ol]",< 1,
"CC(Nc1c(Cl)cnc2ccc(-c3cnc(C(C)(C)O)nc3)c(Cl)c12)c1ccccc1F (racemic) [Example 296, 2-(5-(3,5-dichloro-4-((1-(2-fluorophenyl)ethyl)amino)quinolin-6-yl)pyrimidin-2-yl)propan-2-ol]",,< 1
"CC(C)(O)c1ncc(-c2ccc3ncc(Cl)c(NC(c4ccccc4F)C4CC4)c3c2)cn1 (racemic) [Example 191, 2-(5-(3-chloro-4-((cyclopropyl(2-fluorophenyl)methyl)amino)quinolin-6-yl)pyrimidin-2-yl)propan-2-ol]",< 1,
"COc1ccc(F)c([C@@H](C)Nc2c(Cl)cnc3ccccc23)c1 [Example 451, (R)-3-chloro-N-(1-(2-fluoro-5-methoxyphenyl)ethyl)quinolin-4-amine]",1 to 10,
"C[C@H](Nc1c(Cl)cnc2ccc(-c3cnc(C(C)(C)O)nc3)cc12)[C@H]1CCCN(C(N)=O)C1 [Example 103, (S)-3-((S)-1-((3-chloro-6-(2-(2-hydroxypropan-2-yl)pyrimidin-5-yl)quinolin-4-yl)amino)ethyl)piperidine-1-carboxamide]",1 to 10,
"CN(Nc1c(Cl)cnc2ccc(-c3cnc(C(C)(C)O)nc3)cc12)c1ccccc1 [Example 54, 2-(5-(3-chloro-4-(2-methyl-2-phenylhydrazinyl)quinolin-6-yl)pyrimidin-2-yl)propan-2-ol]",< 1,
"CNC(=O)CN1CCN(c2ncc(-c3ccc4ncc(Cl)c(N[C@H](C)c5ccccc5F)c4c3)cn2)CC1 [Example 89, (R)-2-(4-(5-(3-chloro-4-((1-(2-fluorophenyl)ethyl)amino)quinolin-6-yl)pyrimidin-2-yl)piperazin-1-yl)-N-methylacetamide]",< 1,
"Cc1nc2ccc(-c3cnc(C(C)(C)O)nc3)cc2c(N[C@H](C)c2cc(OCC(=O)O)ccc2F)c1Cl [Example 439, (R)-2-(3-(1-((3-chloro-6-(2-(2-hydroxypropan-2-yl)pyrimidin-5-yl)-2-methylquinolin-4-yl)amino)ethyl)-4-fluorophenoxy)acetic acid]",< 1,
"Cc1ccc(C)c(Nc2c(Cl)c(N)nc3ccc(-c4cnc(N5CCN(CC(=O)O)CC5)nc4)cc23)c1 [Example 45, 2-(4-(5-(2-amino-3-chloro-4-((2,5-dimethylphenyl)amino)quinolin-6-yl)pyrimidin-2-yl)piperazin-1-yl)acetic acid]",< 1,
"CC(Nc1c(Cl)cnc2cc(F)c(-c3ccc(C(O)CO)cc3)cc12)c1cc(C#N)ccc1F (mixture of isomers) [Example 599, 3-(1-((3-chloro-6-(4-(1,2-dihydroxyethyl)phenyl)-7-fluoroquinolin-4-yl)amino)ethyl)-4-fluorobenzonitrile]",< 1,
"CC(Nc1ccnc2cc(F)c(-c3cnc(C4(O)CCOCC4)nc3)cc12)c1ccccc1F (racemic) [Example 287, 4-(5-(7-fluoro-4-((1-(2-fluorophenyl)ethyl)amino)quinolin-6-yl)pyrimidin-2-yl)tetrahydro-2H-pyran-4-ol]",10 to 25,
"Cc1nc2ccc(-c3ccc(C(C)(C)O)cc3)cc2c(N[C@H](C)c2ccccc2F)c1Cl [Example 500, (R)-2-(4-(3-chloro-4-((1-(2-fluorophenyl)ethyl)amino)-2-methylquinolin-6-yl)phenyl)propan-2-ol]",< 1,
"Cc1nc2ccc(-c3cnc(C(C)(C)O)nc3)cc2c(N[C@H](C)c2cc(-c3cc[nH]n3)ccc2F)c1Cl [Example 336, (R)-2-(5-(3-chloro-4-((1-(2-fluoro-5-(1H-pyrazol-3-yl)phenyl)ethyl)amino)-2-methylquinolin-6-yl)pyrimidin-2-yl)propan-2-ol]",< 1,

# The next lines start with the values.
IC50 [1] [µM],IC50 (TNF induced HEK-Blue assay IC50 value) [µM],SMILES
< 1,,"C[C@@H](Nc1c(Cl)cnc2cc(F)c(-c3cnc(N4CCN(CC(=O)NCC(=O)O)CC4)nc3)cc12)c1ccccc1F [Example 304, (R)-(2-(4-(5-(3-chloro-7-fluoro-4-((1-(2-fluorophenyl)ethyl)amino)quinolin-6-yl)pyrimidin-2-yl)piperazin-1-yl)acetyl)glycine]"
< 1,,"Cc1nc2cc(F)c(-c3cnc(C(C)(C)O)nc3)nc2c(N[C@@H](c2cc(C(N)=O)ccc2F)C(F)F)c1Cl [Example 497, (S)-3-(1-((3-chloro-7-fluoro-6-(2-(2-hydroxypropan-2-yl)pyrimidin-5-yl)-2-methyl-1,5-naphthyridin-4-yl)amino)-2,2-difluoroethyl)-4-fluorobenzamide]"
< 1,,"Cc1ccnc(C(C)Nc2c(Cl)cnc3ccc(-c4ccc(C(C)(C)O)cc4)cc23)n1 (racemic) [Example 178, 2-(4-(3-chloro-4-((1-(4-methylpyrimidin-2-yl)ethyl)amino)quinolin-6-yl)phenyl)propan-2-ol]"
1 to 10,,"C[C@@H](Nc1c(Cl)cnc2ccc(-c3ccc(CC(N)C(=O)O)cc3)cc12)c1ccccc1F (mixture of isomers) [Example 116, 2-amino-3-(4-(3-chloro-4-(((R)-1-(2-fluorophenyl)ethyl)amino)quinolin-6-yl)phenyl)propanoic acid]"
< 1,,"CC(Nc1c(Cl)cnc2cc(F)c(-c3ccc(C(O)CO)cc3)cc12)c1ccccc1F (centres unmarked) [Example 290, 1-(4-(3-chloro-7-fluoro-4-((1-(2-fluorophenyl)ethyl)amino)quinolin-6-yl)phenyl)ethane-1,2-diol]"
10 to 25,,"CCc1ncc(-c2ccc3ncc(Cl)c(N[C@H](C)c4ccccc4F)c3c2)cn1 [Example 223, (R)-3-chloro-6-(2-ethylpyrimidin-5-yl)-N-(1-(2-fluorophenyl)ethyl) quinolin-4-amine]"
< 1,,"CCC(Nc1c(Cl)cnc2ccc(-c3cnc(C(C)(C)O)nc3)cc12)c1nc(C(O)CO)ccc1F (centres unmarked) [Example 127, 1-(6-(1-((3-chloro-6-(2-(2-hydroxypropan-2-yl)pyrimidin-5-yl)quinolin-4-yl)amino)propyl)-5-fluoropyridin-2-yl)ethane-1,2-diol]"
< 1,,"C[C@@H](Nc1c(Cl)cnc2cc(F)c(-c3cnc(C(C)(C)O)nc3)nc12)c1ccccc1 [Example 193, (R)-2-(5-(7-chloro-3-fluoro-8-((1-phenylethyl)amino)-1,5-naphthyridin-2-yl)pyrimidin-2-yl)propan-2-ol]"
< 1,,"Cc1nc2ccc(-c3cnc(C(C)(C)O)nc3)cc2c(N[C@H](C)c2cc(C(C)(C)O)ccc2F)c1Cl [Example 408, (R)-2-(5-(3-chloro-4-((1-(2-fluoro-5-(2-hydroxypropan-2-yl)phenyl)ethyl)amino)-2-methylquinolin-6-yl)pyrimidin-2-yl)propan-2-ol, TFA Salt]"
10 to 25,,"Cc1nc2ccc(-c3cnc(C(C)(C)O)nc3)cc2c(NC(C)c2ccccc2F)c1F (racemic) [Example 159, 2-(5-(3-fluoro-4-((1-(2-fluorophenyl)ethyl)amino)-2-methylquinolin-6-yl)pyrimidin-2-yl)propan-2-ol]"
